Tests used:
[1] = Adverse event observation, oral study against fleas; format: in vivo, beagle dogs; conditions: oral 35 μg/kg Days 0-3, dogs
Method: (§1) Dogs were observed hourly±15 minutes for four hours after administration on Day 0 and once daily two hours±15 minutes after Investigational Veterinary Product or control product administration on Days 1, 2 and 3. Observations were conducted for each individual dog.

C. felis fleas [2] = test: Efficacy against fleas on dogs, oral 35 μg/kg study; format: in vivo
Method: The second objective was to investigate the pharmacodynamics between the fluralaner plasmatic dose and the effectiveness against fleas. • IVP: Investigational Veterinary Product, is pure Fluralaner+DMSO (35 μg/kg on Days 0 to 3 (0.35 mL/kg)) • Control product is DMSO (0.35 mL/kg on Days 0 to 3)
On Days 0, 1, 2 and 3, all dogs assigned to group 2 received the Investigational Veterinary Product. On Days 0 to 3 all dogs in group 1 received the control product at a volume equal to the dogs in group 2. Dogs assigned to group 1 received the control product and served as Placebo controls. The quantity of Investigational Veterinary Product and control product administered was calculated according to the dog's individual body weight measured on Day −1.
Dogs were infested with approximately 100 (±8) viable, adult, C. felis fleas on Day −6 for randomisation purposes and on Days 1, 2 and 3 to assess efficacy. Fleas were removed and counted on Days −5, 2, 3 and 4 (24 hours±2 hours after infestation). Dogs were also infested with approximately 50 (±4) viable, adult, unfed R. sanguineus ticks on Day 4 to assess acaricidal efficacy. Ticks will be removed and counted on Day 5 (24 hours±2 hours after infestation).
(§2) The efficacy against ticks and fleas were calculated for the study groups at each assessment day according to the formulas given below.
(§3) Efficacy was calculated as follows: Efficacy (%)=100×(Mc−Mt)/Mc, where: • Mc=Mean number of live ticks (categories 1 to 2) or live fleas on dogs in the negative control group (group 1) at a specific time point. • Mt=Mean number of live ticks (categories 1 to 2) or live fleas on dogs in the IVP group (group 2) • at a specific time point.

C. felis fleas [3] = test: Efficacy against fleas on dogs, oral 250/35/600 μg/kg study; format: in vivo; conditions: Day 3, following 3 consecutive doses of 250 μg/kg per day
Method: The second objective is to investigate the pharmacodynamics between the fluralaner plasmatic dose and the effectiveness against ticks. • IVP: Investigational Veterinary Product, is pure Fluralaner+DMSO (250 μg/kg on Days 0 to 3 (0.25 mL/kg), then 35 μg/kg on Days 4 to 9 (0.35 mL/kg), then 600 μg/kg on Day 11) • Control product is DMSO (0.25 mL/kg on Days 0 to 3, then 0.35 mL/kg on Days 4 to 9)
Dogs were infested with approximately 50 (±4) viable, adult, unfed R. sanguineus ticks on Days 1, 3, 5, 8, 10, 12, 16, 22, 26 and 30 to assess efficacy. Ticks will be removed and counted on Days 3, 5, 7 (48 hours±2 hours after infestation) and 9, 11, 13, 17, 24, 27, 32 (24 hours±2 hours after infestation). […] Fleas will be removed and counted on Days −5 (+1 day) and 3 (24 hours±2 hours after infestation).
as §2, §3

[4] = Adverse event observation, oral study against ticks; format: in vivo, beagle dogs; conditions: oral 250/35/600 μg/kg regimen, dogs
Method: as §1, with “Dogs assigned to group 1 received the control product and served as Placebo controls. Dogs” for “Dogs”

## Cc1cc(C2=NOC(c3cc(Cl)cc(Cl)c3)(C(F)(F)F)C2)ccc1C(=O)NCC(=O)NCC(F)(F)F (centres unmarked) [fluralaner, Fluralaner]
[1]
  Adverse Events as a result of the product: No Adverse Events
C. felis fleas [2]; 24 h after the first three doses of 35 μg/kg per day, dogs
  efficacy against fleas: 100%
C. felis fleas [2]; 24 h after the first two doses of 35 μg/kg per day, dogs
  efficacy against fleas: 99.6%
C. felis fleas [2]; after the fourth and final dose of 35 μg/kg per day, dogs
  efficacy against fleas: 99.8%
C. felis fleas [2]; infestation at D1, first measurement at D2, whatever the dose
  efficacy against fleas from 24 hours after administration: high efficacy
C. felis fleas [2]; period Day 2 to Day 4, 24 hours after infestation, oral 35 μg/kg Days 0-3, dogs
  efficacy against fleas: 100%
C. felis fleas [3]
  efficacy against fleas: 92%
[4]
  Adverse Events as a result of the product: No Adverse Events

Reference: US12714696B2, “Low dose fluralaner compositions for protection against parasitic invertebrate pest” (VIRBAC, priority 2019, dated 2026)
